Measured values: patent US20220315554A1, “COMPOUNDS COMPRISING A […] LIGAND AND USE THEREOF” (priority 2019, published 2022)

How the values were obtained:
[1] = biological target: T1, Human recombinant FAP (Homo sapiens, UniProt Q12884); experiment: FRET-based FAP protease activity assay; assay type: biochemical; parameters: purchased R&D systems 3715-SE; conditions: pIC50 Category (Activity), FRET substrate, 37° C.
T1 sequence (Q12884 1-760): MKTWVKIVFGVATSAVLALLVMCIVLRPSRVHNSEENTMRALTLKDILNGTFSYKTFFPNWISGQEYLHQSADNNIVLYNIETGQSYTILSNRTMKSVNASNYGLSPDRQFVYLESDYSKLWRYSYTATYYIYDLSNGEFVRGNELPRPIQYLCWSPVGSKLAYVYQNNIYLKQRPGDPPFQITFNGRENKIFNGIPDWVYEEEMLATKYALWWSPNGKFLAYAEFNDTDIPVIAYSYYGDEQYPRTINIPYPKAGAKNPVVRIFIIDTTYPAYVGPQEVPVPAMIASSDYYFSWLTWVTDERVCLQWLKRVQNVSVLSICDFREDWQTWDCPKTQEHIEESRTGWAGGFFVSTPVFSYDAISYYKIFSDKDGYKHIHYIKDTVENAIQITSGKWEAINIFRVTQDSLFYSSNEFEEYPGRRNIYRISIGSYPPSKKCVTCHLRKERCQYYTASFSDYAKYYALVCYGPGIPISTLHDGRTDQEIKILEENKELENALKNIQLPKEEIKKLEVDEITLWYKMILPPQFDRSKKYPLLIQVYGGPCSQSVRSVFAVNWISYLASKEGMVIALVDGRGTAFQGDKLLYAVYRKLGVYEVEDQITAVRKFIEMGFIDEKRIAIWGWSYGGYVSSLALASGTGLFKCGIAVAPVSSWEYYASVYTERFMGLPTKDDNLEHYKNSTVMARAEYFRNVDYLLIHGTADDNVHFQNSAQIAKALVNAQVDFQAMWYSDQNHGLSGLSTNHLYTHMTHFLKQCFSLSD

[2] = biological target: T2, FAP-expressing human WI-38 fibroblasts (Homo sapiens, UniProt Q12884); experiment: Competitive FACS binding assay; conditions: pIC50 Category (FACS), competition with 3 nM Cy5-labeled compound, 4° C., 1 hour
T2 construct: FAP-expressing human WI-38 fibroblasts (ECACC) were cultured in EMEM; host or cells: WI-38 human fibroblasts
T2 sequence (Q12884 1-760): T1 sequence (Q12884 1-760)
Procedure: Cells were analyzed in an Attune NxT flow cytometer. […]

SMILES	IC50 [1] [nM]	IC50 [2] [nM]
CCCCCC(=O)N[C@H]1CSCc2cc(CSCCNC(=O)CN3CCN4CCN(CC(=O)O)CCN(CC3)CC(=O)[O][Cu][O]C(=O)C4)cc(c2)CSC[C@@H](C(=O)O)NC(=O)[C@H](Cc2ccccc2)NC(=O)[C@H](CCC(N)=O)NC(=O)[C@H]([C@@H](C)O)NC(=O)[C@@H]2CCCN2C(=O)[C@@H]2CCCN2C1 [3BP-4293, Copper(II)-Complex of Hex-[Cys(tMeBn(DOTA-AET))-Pro-Pro-Thr-Gln-Phe-Cys]-OH]	< 10	< 10
CCCCCC(=O)N[C@H]1CSCc2cc(CSCCNC(=O)CCC(=O)NCCCOCCOCCOCCCNC(=O)C(CNCCN)CNCCN)cc(c2)CSC[C@@H](C(=O)O)NC(=O)[C@H](Cc2ccccc2)NC(=O)[C@H](CCC(N)=O)NC(=O)[C@H]([C@@H](C)O)NC(=O)[C@@H]2CCCN2C(=O)[C@@H]2CCCN2C1=O [3BP-4299, Hex-[Cys-(tMeBn(N4Ac-Ttds-AET))-Pro-Pro-Thr-Gln-Phe-Cys]-OH]	< 10	< 10
CCCCCC(=O)N[C@H]1CSCc2cc(CSCCNC(=O)CCOCCOCCOCCOCCOCCOCCNC(=O)C(CNCCN)CNCCN)cc(c2)CSC[C@@H](C(=O)O)NC(=O)[C@H](Cc2ccccc2)NC(=O)[C@H](CCC(N)=O)NC(=O)[C@H]([C@@H](C)O)NC(=O)[C@@H]2CCCN2C(=O)[C@@H]2CCCN2C1=O [3BP-4300, Hex-[Cys-(tMeBn(N4Ac-PEG6-AET))-Pro-Pro-Thr-Gln-Phe-Cys]-OH]	< 10	10 to 79.4
CCCCCC(=O)N[C@H]1CSCc2cc(CSCCNC(=O)[C@H](CO)NC(=O)[C@H](CO)NC(=O)[C@H](CO)NC(=O)CS)cc(c2)CSC[C@@H](C(=O)O)NC(=O)[C@H](Cc2ccccc2)NC(=O)[C@H](CCC(N)=O)NC(=O)[C@H]([C@@H](C)O)NC(=O)[C@@H]2CCCN2C(=O)[C@@H]2CCCN2C1=O [3BP-4301, Hex-[Cys-(tMeBn(H-SAc-Ser-Ser-Ser-AET))-Pro-Pro-Thr-Gln-Phe-Cys]-OH]	10 to 79.4	10 to 79.4
CCCCCC(=O)N[C@H]1CSCc2cc(CSCCNC(=O)CCC(=O)NCCCOCCOCCOCCCNC(=O)[C@H](CS)NC(=O)[C@H](CC(=O)O)NC(=O)[C@@H](N)CC(=O)O)cc(c2)CSC[C@@H](C(=O)O)NC(=O)[C@H](Cc2ccccc2)NC(=O)[C@H](CCC(N)=O)NC(=O)[C@H]([C@@H](C)O)NC(=O)[C@@H]2CCCN2C(=O)[C@@H]2CCCN2C1=O [3BP-4302, Hex-[Cys-(tMeBn(H-Asp-Asp-Cys-Ttds-AET))-Pro-Pro-Thr-Gln-Phe-Cys]-OH]	10 to 79.4	100 to 794
CCCCCC(=O)N[C@H]1CSCc2cc(CSCCNC(=O)[C@H](CS)NC(=O)[C@H](CC(=O)O)NC(=O)[C@@H](N)CC(=O)O)cc(c2)CSC[C@@H](C(=O)O)NC(=O)[C@H](Cc2ccccc2)NC(=O)[C@H](CCC(N)=O)NC(=O)[C@H]([C@@H](C)O)NC(=O)[C@@H]2CCCN2C(=O)[C@@H]2CCCN2C1=O [3BP-4303, Hex-[Cys-(tMeBn(H-Asp-Asp-Cys-AET))-Pro-Pro-Thr-Gln-Phe-Cys]-OH]	10 to 79.4	100 to 794
CCCCCC(=O)N[C@H]1CSCc2cc(CSCCNC(=O)CCOCCOCCOCCOCCOCCOCCNC(=O)[C@H](CO)NC(=O)[C@H](CO)NC(=O)[C@H](CO)NC(=O)CS)cc(c2)CSC[C@@H](C(=O)O)NC(=O)[C@H](Cc2ccccc2)NC(=O)[C@H](CCC(N)=O)NC(=O)[C@H]([C@@H](C)O)NC(=O)[C@@H]2CCCN2C(=O)[C@@H]2CCCN2C1=O [3BP-4308, Hex-[Cys-(tMeBn(H-SAc-Ser-Ser-Ser-Ttds-AET))-Pro-Pro-Thr-Gln-Phe-Cys]-OH]	10 to 79.4	10 to 79.4
CCCCCC(=O)N[C@H]1CSCc2cc(CSCCNC(=O)CN(CCN(CCN(CC(=O)O)CC(=O)O)CC(=O)O)CC(=O)O)cc(c2)CSC[C@@H](C(=O)O)NC(=O)[C@H](Cc2ccccc2)NC(=O)[C@H](CCC(N)=O)NC(=O)[C@H]([C@@H](C)O)NC(=O)[C@@H]2CCCN2C(=O)[C@@H]2CCCN2C1=O [3BP-4309, Hex-[Cys-(tMeBn(DTPA2-AET))-Pro-Pro-Thr-Gln-Phe-Cys]-OH]	10 to 79.4	10 to 79.4
CCCCCC(=O)N[C@H]1CSCc2cc(CSCCNC(=O)CN3CCN(CC(=O)O)CCN(CC(=O)O)CC3)cc(c2)CSC[C@@H](C(=O)O)NC(=O)[C@H](Cc2ccccc2)NC(=O)[C@H](CCC(N)=O)NC(=O)[C@H]([C@@H](C)O)NC(=O)[C@@H]2CCCN2C(=O)[C@@H]2CCCN2C1=O [3BP-4310, Hex-[Cys-(tMeBn(NOTA-AET))-Pro-Pro-Thr-Gln-Phe-Cys]-OH]	< 10	< 10
CCCCCC(=O)N[C@H]1CSCc2cc(CSCCNC(=O)c3ccc(NN)nc3)cc(c2)CSC[C@@H](C(=O)O)NC(=O)[C@H](Cc2ccccc2)NC(=O)[C@H](CCC(N)=O)NC(=O)[C@H]([C@@H](C)O)NC(=O)[C@@H]2CCCN2C(=O)[C@@H]2CCCN2C1=O [3BP-4342, Hex-[Cys-(tMeBn(H-HYNIC-AET))-Pro-Pro-Thr-Gln-Phe-Cys]-OH]	< 10	10 to 79.4
CCCCCC(=O)N[C@H]1CSCc2cc(CSCCNC(=O)CN3CCN4CCN(CC(=O)O)CCN(CC3)CC(=O)[O][Zn][O]C(=O)C4)cc(c2)CSC[C@@H](C(=O)O)NC(=O)[C@H](Cc2ccccc2)NC(=O)[C@H](CCC(N)=O)NC(=O)[C@H]([C@@H](C)O)NC(=O)[C@@H]2CCCN2C(=O)[C@@H]2CCCN2C1 [3BP-4343, Zink-Complex of Hex-[Cys(tMeBn(DOTA-AET))-Pro-Pro-Thr-Gln-Phe-Cys]-OH]	< 10	< 10
CCCCCC(=O)N[C@H]1CSCc2cc(CSCCNC(=O)CCC(=O)NCCCOCCOCCOCCCNC(=O)CN3CCN(CC(=O)O)CCN(CC(=O)O)CC3)cc(c2)CSC[C@@H](C(=O)O)NC(=O)[C@H](Cc2ccccc2)NC(=O)[C@H](CCC(N)=O)NC(=O)[C@H]([C@@H](C)O)NC(=O)[C@@H]2CCCN2C(=O)[C@@H]2CCCN2C1=O [3BP-4344, Hex-[Cys-(tMeBn(NOTA-Ttds-AET))-Pro-Pro-Thr-Gln-Phe-Cys]-OH]	< 10	< 10
CCCCCC(=O)N[C@H]1CSCc2cc(CSCCNC(=O)CCC(=O)NCCCOCCOCCOCCCNC(=O)CN(CCN(CCN(CC(=O)O)CC(=O)O)CC(=O)O)CC(=O)O)cc(c2)CSC[C@@H](C(=O)O)NC(=O)[C@H](Cc2ccccc2)NC(=O)[C@H](CCC(N)=O)NC(=O)[C@H]([C@@H](C)O)NC(=O)[C@@H]2CCCN2C(=O)[C@@H]2CCCN2C1=O [3BP-4352, Hex-[Cys-(tMeBn(DTPA2-Ttds-AET))-Pro-Pro-Thr-Gln-Phe-Cys]-OH]	10 to 79.4	100 to 794
CCCCCC(=O)N[C@H]1CSCc2cc(CSCCNC(=O)CCOCCOCCOCCOCCOCCOCCNC(=O)CN(CCN(CCN(CC(=O)O)CC(=O)O)CC(=O)O)CC(=O)O)cc(c2)CSC[C@@H](C(=O)O)NC(=O)[C@H](Cc2ccccc2)NC(=O)[C@H](CCC(N)=O)NC(=O)[C@H]([C@@H](C)O)NC(=O)[C@@H]2CCCN2C(=O)[C@@H]2CCCN2C1=O [3BP-4353, Hex-[Cys-(tMeBn(DTPA2-PEG6-AET))-Pro-Pro-Thr-Gln-Phe-Cys]-OH]	10 to 79.4	10 to 79.4
CCCCCC(=O)N[C@H]1CSCc2cc(CSCCNC(=O)CCCC(=O)Nc3ccc(C[C@H](CN(CCN(CC(=O)O)CC(=O)O)CC(=O)O)N(CC(=O)O)CC(=O)O)cc3)cc(c2)CSC[C@@H](C(=O)O)NC(=O)[C@H](Cc2ccccc2)NC(=O)[C@H](CCC(N)=O)NC(=O)[C@H]([C@@H](C)O)NC(=O)[C@@H]2CCCN2C(=O)[C@@H]2CCCN2C1=O [3BP-4366, Hex-[Cys-(tMeBn(DTPABzl-Glutar-AET))-Pro-Pro-Thr-Gln-Phe-Cys]-OH]	100 to 794	100 to 794
CCCCCC(=O)N[C@H]1CSCc2cc(CSCCNC(=O)CN3CCN4CCN5CCN(CC3)CC(=O)[O][Lu]([O]C(=O)C4)[O]C(=O)C5)cc(c2)CSC[C@@H](C(=O)N[C@@H](CC(=O)O)C(=O)NCCCC(=O)NC(CCCNC(=N)N)C(=O)NCCCOCCOCCOCCCNC(=O)CCC(=O)NC(CCCCNC(=O)c2ccc(-c3c4ccc(=N)c(S(=O)(=O)O)c-4oc4c(S(=O)(=O)O)c(N)ccc34)c(C(=O)O)c2)C(N)=O)NC[C@H](Cc2ccccc2)NC(=O)[C@H](CCC(N)=O)NC(=O)C([C@@H](C)O)NC(=O)[C@@H]2CCCN2C(=O)[C@@H]2CCCC2C1=O (stereo partly drawn) [3BP-4372, Hex-[Cys(tMeBn(LuDOTA-AET))-Pro-Pro-Thr-Gln-Phe-Cys]-Asp-Gab-Arg-Ttds-Lys(AF488)-NH2]	< 10	< 10
